Results: PubChem BioAssay (NCI)
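96-well plates; 48 h exposure; 5 concentrations. Endpoints by linear interpolation between flanking doses. Not reached: highest tested concentration assigned. Here, GI50 denotes the concentration required for 50% inhibition of growth. TGI marks complete inhibition of growth.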

Key:
Test in all cases: NCI tumour cell line growth inhibition, 48 h; in the data active = GI50 below about 0.43 µM; inactive = the rest
[1] = test system: 786-0 renal
[2] = test system: A498 renal
[3] = test system: A549 NSCLC
[4] = test system: ACHN renal
[5] = test system: BT-549 breast
[6] = test system: CAKI-1 renal
[7] = test system: CCRF-CEM leukemia
[8] = test system: COLO 205 colon
[9] = test system: DU-145 prostate
[10] = test system: EKVX NSCLC
[11] = test system: HCC-2998 colon
[12] = test system: HCT-116 colon
[13] = test system: HCT-15 colon
[14] = test system: HL-60(TB) leukemia
[15] = test system: HOP-62 NSCLC
[16] = test system: HOP-92 NSCLC
[17] = test system: HS 578T breast
[18] = test system: HT29 colon
[19] = test system: IGROV1 ovarian
[20] = test system: K-562 leukemia
[21] = test system: KM12 colon
[22] = test system: LOX IMVI melanoma
[23] = test system: M14 melanoma
[24] = test system: MALME-3M melanoma
[25] = test system: MCF7 breast
[26] = test system: MDA-MB-231 breast
[27] = test system: MDA-MB-435
[28] = test system: MDA-MB-468 breast
[29] = test system: MOLT-4 leukemia
[30] = test system: NCI-H226 lung
[31] = test system: NCI-H23 lung
[32] = test system: NCI-H460 lung
[33] = test system: NCI-H522 lung
[34] = test system: OVCAR-3 ovarian
[35] = test system: OVCAR-4 ovarian
[36] = test system: OVCAR-5 ovarian
[37] = test system: OVCAR-8 ovarian
[38] = test system: PC-3 prostate
[39] = test system: RPMI-8226 leukemia
[40] = test system: RXF 393 renal
[41] = test system: SF-268 CNS
[42] = test system: SF-295 CNS
[43] = test system: SF-539 CNS
[44] = test system: SK-MEL-2 melanoma
[45] = test system: SK-MEL-28 melanoma
[46] = test system: SK-MEL-5 melanoma
[47] = test system: SK-OV-3 ovarian
[48] = test system: SN12C renal
[49] = test system: SNB-19 CNS
[50] = test system: SR leukemia
[51] = test system: SW-620 colon
[52] = test system: T-47D breast
[53] = test system: TK-10 renal
[54] = test system: U251 CNS
[55] = test system: UACC-257 melanoma
[56] = test system: UACC-62 melanoma
[57] = test system: UO-31 renal

O=C1CCC(N2C(=O)c3cccc(NCCOCCOCCOCCC(=O)NCCCC(=O)NC(c4ccc5c(c4)OCO5)c4cc(Cl)c5cccnc5c4O)c3C2=O)C(=O)C1 (centres undefined)
inactive: GI50 [1] 29.6 µM | GI50 [2] > 99 µM | GI50 [3] 41.5 µM | GI50 [4] 52.5 µM | GI50 [5] 8.58 µM | GI50 [6] 28.3 µM | GI50 [7] 3.34 µM | GI50 [8] 5.04 µM | GI50 [9] 37.5 µM | GI50 [10] 17.2 µM | GI50 [11] 6.03 µM | GI50 [12] 22.2 µM | GI50 [13] 37.4 µM | GI50 [14] 2.41 µM | GI50 [15] 7.19 µM | GI50 [16] 4.29 µM | GI50 [17] 8.43 µM | GI50 [18] 26.4 µM | GI50 [19] 3.77 µM | GI50 [20] 5.3 µM | GI50 [21] 4.5 µM | GI50 [22] 4.29 µM | GI50 [23] 14 µM | GI50 [24] 11.8 µM | GI50 [25] 3.69 µM | GI50 [26] 4.32 µM | GI50 [27] 5.8 µM | GI50 [28] 2.56 µM | GI50 [29] 4.8 µM | GI50 [30] 14.5 µM | GI50 [31] 12.7 µM | GI50 [32] 4.81 µM | GI50 [33] 4.39 µM | GI50 [34] 3.33 µM | GI50 [35] 14.4 µM | GI50 [36] 19.5 µM | GI50 [37] 11.9 µM | GI50 [38] 7.83 µM | GI50 [39] 7.12 µM | GI50 [40] 8.56 µM | GI50 [41] 4.38 µM | GI50 [42] 25.4 µM | GI50 [43] 4.21 µM | GI50 [44] 4.89 µM | GI50 [45] 5.95 µM | GI50 [46] 14 µM | GI50 [47] 14.6 µM | GI50 [48] 5.42 µM | GI50 [49] 6.32 µM | GI50 [50] 5.26 µM | GI50 [51] 12.6 µM | GI50 [52] 5.06 µM | GI50 [53] 62.1 µM | GI50 [54] 6.8 µM | GI50 [55] 8.95 µM | GI50 [56] 3.76 µM | GI50 [57] 33.6 µM
22.2 µM: TGI [22]
84.3 µM: TGI [35]
33.3 µM: TGI [40]
23.1 µM: TGI [14]
42.9 µM: TGI [32]
42.3 µM: TGI [5]
90.8 µM: TGI [24]
85.7 µM: TGI [55]
72.2 µM: TGI [30]
52.3 µM: TGI [16]
30.8 µM: TGI [11]
61 µM: TGI [45]
22.7 µM: TGI [56]
> 99 µM: TGI [1] | TGI [2] | TGI [3] | TGI [4] | TGI [6] | TGI [7] | TGI [8] | TGI [9] | TGI [10] | TGI [12] | TGI [13] | TGI [15] | TGI [17] | TGI [18] | TGI [19] | TGI [20] | TGI [21] | TGI [23] | TGI [25] | TGI [27] | TGI [29] | TGI [31] | TGI [34] | TGI [36] | TGI [38] | TGI [39] | TGI [41] | TGI [42] | TGI [47] | TGI [48] | TGI [49] | TGI [50] | TGI [51] | TGI [52] | TGI [53] | TGI [54] | TGI [57]
7.77 µM: TGI [28]
75.1 µM: TGI [37]
34.6 µM: TGI [44]
26.6 µM: TGI [43]
29.5 µM: TGI [26]
43.8 µM: TGI [46]
41.5 µM: TGI [33]
